Data as given in patent publication US11821003B2, “Cardiogenic mesoderm formation regulators” (Sanford Burnham Prebys Medical Discovery Institute, priority 2017, dated 2023).
“Also recorded” adds a separate entry of the source.

How the values were obtained:
[1] = tested on: mESCs; conditions: cited from earlier work
[2] = tested on: cardiomyocytes derived from Id1 overexpressing h9-hESCs; test: Beat rate of cardiomyocytes measured optically with VF2.1 Cl; type: cell-based, human; conditions: 100 nM, compared to vehicle
Method: FIG. 3F. Schematic of the workflow for the physiological assessment of cardiomyocytes derived from Id1 overexpressing h9-hESCs using the calcium (Fluo-4) and voltage (VF2.1 Cl)(Miller et al., 2012) sensitive dyes.
Next, experiments were performed to determine whether iMP progenitors are bona fide multipotent cardiovascular progenitors and thus able to differentiate into multiple cardiac lineages including functional cardiomyocytes. To address this question, iMPs were first produced in bulk until day 6 of differentiation for mouse, or day 5 for human. At this point, iMPs could be cryopreserved or used fresh. Spontaneous differentiation potential under basal media conditions without cytokines (FIG. 3A) was assessed by RT-qPCR (FIGS. 3B, 3C) and immunostaining (FIG. 3D and FIGS. 9A, 9B) at day 15 of differentiation. […] Although iMPs are multipotent progenitors, the vast majority of the cells (˜70%) spontaneously differentiate into ACTC1^+ cardiomyocytes in hESCs (FIG. 3E). Next, we assessed whether resulting ACTC1^+ cells show characteristics of functional cardiomyocytes, which include the ability to contract, display intracellular calcium oscillations and action potentials, and respond to hormonal stimuli (Birket et al., 2015; Burridge et al., 2014).

Compound | Id1 transcripts [1] | beat rate [2]
NC(=O)c1ccc(-c2nc(-c3ccc4c(c3)OCO4)c(-c3ccccn3)[nH]2)cc1 [SB431542] | upregulate Id1 transcripts | 
CC(C)NCC(O)c1ccc(O)c(O)c1 (centres unmarked) [isoproterenol] |  | increased beat rate; also recorded: increase in beating frequency
